Source: patent US6914045B2, “Glycopeptide antibiotics” (Wyeth Holdings Corporation, priority 2001, dated 2005)
≈ marks a conversion by molar mass, not a printed value.

Experiments:
Assay in all cases: in vitro antibacterial evaluation, MIC by broth dilution
Type in all cases: cell-based
[1] = tested on: Enterococcus sp.; details: broth dilution, 18 hours at 35° C.
In short: (§1)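 MIC = lowest antibiotic concentration preventing visible growth; inoculum 5×10^5 CFU/mL; drug range 64-0.06 μg/mL; Muller-Hinton II […]; NCCLS M7-A2 guidance.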

[2] = tested on: Staphylococcus sp.; details: broth dilution, 18 hours at 35° C.
In short: as §1

[3] = tested on: Streptococcus sp.; details: broth dilution, 18 hours at 35° C.
In short: as §1

[4] = tested on: Escherichia coli; details: 18 hours at 35° C.

## CC(c1ccccc1)C1NC(=O)CNC(=O)C(CO)NC(=O)C(C(O)C2CNC(=N)N2C2OC(CO)C(O)C(O)C2O)NC(=O)C(C(O)C2CNC(=N)N2)NC(=O)C(Cc2ccc(OC3OC(CO)C(OC4OC(CO)C(OCC=Cc5ccc(N(C)C)cc5)C(O)C4O)C(O)C3O)cc2)NC1=O (stereo not shown) [Example 243a]
[1]
  MIC Enterococcus avium (GC 4558): 16 µg/mL (≈ 11 µM)
  MIC Enterococcus faecalis (ATCC 29212): 32 µg/mL (≈ 22 µM)
  MIC Enterococcus faecalis (GC 2242): 32 µg/mL (≈ 22 µM)
  MIC Enterococcus faecalis (GC 2691): 32 µg/mL (≈ 22 µM)
  MIC Enterococcus faecalis (GC 3059): 32 µg/mL (≈ 22 µM)
  MIC Enterococcus faecalis (GC 4552): 32 µg/mL (≈ 22 µM)
  MIC Enterococcus faecalis (GC 4553): 32 µg/mL (≈ 22 µM)
  MIC Enterococcus faecalis (GC 4554): 32 µg/mL (≈ 22 µM)
  MIC Enterococcus faecalis (GC 6189): 32 µg/mL (≈ 22 µM)
  MIC Enterococcus faecium (GC 2243): 32 µg/mL (≈ 22 µM)
  MIC Enterococcus faecium (GC 4556): 32 µg/mL (≈ 22 µM)
  MIC Enterococcus faecium (GC 4557): 16 µg/mL (≈ 11 µM)
[1]; strain ATCC 29212
  MIC Enterococcus faecalis (ATCC 29212): 32 µg/mL (≈ 22 µM)
[1]; strain GC 2243
  MIC Enterococcus faecium (GC 2243): 32 µg/mL (≈ 22 µM)
[1]; strain GC 4552
  MIC Enterococcus faecalis (GC 4552): 32 µg/mL (≈ 22 µM)
[1]; strain GC 4553
  MIC Enterococcus faecalis (GC 4553): 32 µg/mL (≈ 22 µM)
[1]; strain GC 4554
  MIC Enterococcus faecalis (GC 4554): 32 µg/mL (≈ 22 µM)
[1]; strain GC 4556
  MIC Enterococcus faecium (GC 4556): 32 µg/mL (≈ 22 µM)
[1]; strain GC 4557
  MIC Enterococcus faecium (GC 4557): 16 µg/mL (≈ 11 µM)
[1]; strain GC 4558
  MIC Enterococcus avium (GC 4558): 16 µg/mL (≈ 11 µM)
[1]; strain GC 6189
  MIC Enterococcus faecalis (GC 6189): 32 µg/mL (≈ 22 µM)
[1]; inoculum 5×10^5 CFU/mL, strain GC 2242
  MIC Enterococcus faecalis (GC 2242): 32 µg/mL (≈ 22 µM)
[1]; inoculum 5×10^5 CFU/mL, strain GC 2691
  MIC Enterococcus faecalis (GC 2691): 32 µg/mL (≈ 22 µM)
[1]; inoculum 5×10^5 CFU/mL, strain GC 3059
  MIC Enterococcus faecalis (GC 3059): 32 µg/mL (≈ 22 µM)
[2]
  MIC Coagulase Negative Staphylococcus (GC 4547): 32 µg/mL (≈ 22 µM)
  MIC Coagulase Negative Staphylococcus (GC 4548): 32 µg/mL (≈ 22 µM)
  MIC Coagulase Negative Staphylococcus (GC 4549): 16 µg/mL (≈ 11 µM)
  MIC Coagulase Negative Staphylococcus (GC 4551): 32 µg/mL (≈ 22 µM)
  MIC Coagulase Negative Staphylococcus (GC 6257): 16 µg/mL (≈ 11 µM)
  MIC Staphylococcus aureus (ATCC 29213): 32 µg/mL (≈ 22 µM)
  MIC Staphylococcus aureus (GC 1131): 32 µg/mL (≈ 22 µM)
  MIC Staphylococcus aureus (GC 3051): 32 µg/mL (≈ 22 µM)
  MIC Staphylococcus aureus (GC 3053): 32 µg/mL (≈ 22 µM)
  MIC Staphylococcus aureus (GC 4541): 32 µg/mL (≈ 22 µM)
  MIC Staphylococcus aureus (GC 4542): 32 µg/mL (≈ 22 µM)
  MIC Staphylococcus aureus (GC 4544): 32 µg/mL (≈ 22 µM)
  MIC Staphylococcus aureus (GC 4545): 32 µg/mL (≈ 22 µM)
  MIC Staphylococcus aureus-SMITH (GC 4543): 32 µg/mL (≈ 22 µM)
  MIC Staphylococcus haemolyticus (GC 4546): 32 µg/mL (≈ 22 µM)
[2]; strain ATCC 29213
  MIC Staphylococcus aureus (ATCC 29213): 32 µg/mL (≈ 22 µM)
[2]; strain GC 1131
  MIC Staphylococcus aureus (GC 1131): 32 µg/mL (≈ 22 µM)
[2]; strain GC 3051
  MIC Staphylococcus aureus (GC 3051): 32 µg/mL (≈ 22 µM)
[2]; strain GC 3053
  MIC Staphylococcus aureus (GC 3053): 32 µg/mL (≈ 22 µM)
[2]; strain GC 4541
  MIC Staphylococcus aureus (GC 4541): 32 µg/mL (≈ 22 µM)
[2]; strain GC 4542
  MIC Staphylococcus aureus (GC 4542): 32 µg/mL (≈ 22 µM)
[2]; strain GC 4543
  MIC Staphylococcus aureus-SMITH (GC 4543): 32 µg/mL (≈ 22 µM)
[2]; strain GC 4544
  MIC Staphylococcus aureus (GC 4544): 32 µg/mL (≈ 22 µM)
[2]; strain GC 4545
  MIC Staphylococcus aureus (GC 4545): 32 µg/mL (≈ 22 µM)
[2]; strain GC 4546
  MIC Staphylococcus haemolyticus (GC 4546): 32 µg/mL (≈ 22 µM)
[2]; strain GC 4547
  MIC Coagulase Negative Staphylococcus (GC 4547): 32 µg/mL (≈ 22 µM)
[2]; strain GC 4548
  MIC Coagulase Negative Staphylococcus (GC 4548): 32 µg/mL (≈ 22 µM)
[2]; strain GC 4549
  MIC Coagulase Negative Staphylococcus (GC 4549): 16 µg/mL (≈ 11 µM)
[2]; strain GC 4551
  MIC Coagulase Negative Staphylococcus (GC 4551): 32 µg/mL (≈ 22 µM)
[2]; strain GC 6257
  MIC Coagulase Negative Staphylococcus (GC 6257): 16 µg/mL (≈ 11 µM)
[3]
  MIC Streptococcus agalactiae (GC 4564): 16 µg/mL (≈ 11 µM)
  MIC Streptococcus pneumoniae (ATCC 6301): 16 µg/mL (≈ 11 µM)
  MIC Streptococcus pneumoniae (GC 1894): 1 µg/mL (≈ 0.688 µM)
  MIC Streptococcus pneumoniae (GC 4565): 2 µg/mL (≈ 1.38 µM)
  MIC Streptococcus pyogenes (GC 4563): 8 µg/mL (≈ 5.5 µM)
[3]; inoculum 5×10^5 CFU/mL, strain ATCC 6301
  MIC Streptococcus pneumoniae (ATCC 6301): 16 µg/mL (≈ 11 µM)
[3]; inoculum 5×10^5 CFU/mL, strain GC 1894
  MIC Streptococcus pneumoniae (GC 1894): 1 µg/mL (≈ 0.688 µM)
[3]; inoculum 5×10^5 CFU/mL, strain GC 4563
  MIC Streptococcus pyogenes (GC 4563): 8 µg/mL (≈ 5.5 µM)
[3]; inoculum 5×10^5 CFU/mL, strain GC 4564
  MIC Streptococcus agalactiae (GC 4564): 16 µg/mL (≈ 11 µM)
[3]; inoculum 5×10^5 CFU/mL, strain GC 4565
  MIC Streptococcus pneumoniae (GC 4565): 2 µg/mL (≈ 1.38 µM)
[4]
  MIC Escherichia coli (ATCC 25922): >64 µg/mL
  MIC Escherichia coli (GC 4559): >64 µg/mL
  MIC Escherichia coli (GC 4560): 32 µg/mL (≈ 22 µM)
